pIC50: −log10 of the molar value.

One data set deals with Integrin alpha2/beta1 (Homo sapiens, UniProt P05556+P17301). Put plainly: Antagonist activity at recombinant integrin alpha2 beta1 receptor (unknown origin) assessed as inhibition of interaction with biotinylated collagen type-1 after 3 hrs by solid phase ELISA-type assay. In kind it is protein-complex assay.
A short description of data set [1]: Plasma concentration in Sprague-Dawley rat at 4.8 mg/kg, iv administered as bolus dose measured after 1 hr by LC-MS/MS analysis. In kind it is ADME, organism-based. More on the design: dose 4.8 mg/kg, route intravenous.
Data set [2] is described as follows: Drug excretion in Sprague-Dawley rat bile at 5 mg/kg, iv administered as bolus dose measured after 2 hrs by LC-MS/MS analysis. In kind it is ADME, organism-based. More on the design: dose 5 mg/kg, route intravenous. Particulars: read-out: Drug excretion.
Data set [3] in a line: Drug excretion in Sprague-Dawley rat urine at 4.8 mg/kg, iv administered as bolus dose measured after 24 hrs by LC-MS/MS analysis. In kind it is ADME, organism-based. More on the design: dose 4.8 mg/kg, route intravenous. The following applies: read-out: Drug excretion.
The nature of data set [4]: Volume of distribution at steady state in Sprague-Dawley rat at 4.8 mg/kg, iv administered as bolus dose by LC-MS/MS analysis. The data set is classed as ADME, organism-based. On the set-up: dose 4.8 mg/kg, route intravenous. Particulars: in vivo, read-out: Vdss.
The nature of data set [5]: Initial plasma concentration in Sprague-Dawley rat at 4.8 mg/kg, iv administered as bolus dose by LC-MS/MS analysis. More on the design: dose 4.8 mg/kg, route intravenous. In kind it is ADME, organism-based.
Data set [6] can be described thus: Half life in Sprague-Dawley rat at 4.8 mg/kg, iv administered as bolus dose by LC-MS/MS analysis. Particulars: in vivo. On the set-up: dose 4.8 mg/kg, route intravenous. In kind it is ADME, organism-based.
For data set [7], the target named is Voltage-gated inwardly rectifying potassium channel KCNH2 (Homo sapiens, UniProt Q12809). The data set is described as follows: Inhibition of human ERG expressed in CHO cells by patch clamp assay. The data set is classed as cell-based.
Data set [8] has as its target T1, Cytochrome P450 3A4 (Homo sapiens, UniProt P08684). Put plainly: Induction of CYP3A4 activity (unknown origin) relative to control. In kind it is ADME.
In the next data set the target is T2, Cytochrome P450 1A2 (Homo sapiens, UniProt P05177).
T2 sequence (P05177 whole entry): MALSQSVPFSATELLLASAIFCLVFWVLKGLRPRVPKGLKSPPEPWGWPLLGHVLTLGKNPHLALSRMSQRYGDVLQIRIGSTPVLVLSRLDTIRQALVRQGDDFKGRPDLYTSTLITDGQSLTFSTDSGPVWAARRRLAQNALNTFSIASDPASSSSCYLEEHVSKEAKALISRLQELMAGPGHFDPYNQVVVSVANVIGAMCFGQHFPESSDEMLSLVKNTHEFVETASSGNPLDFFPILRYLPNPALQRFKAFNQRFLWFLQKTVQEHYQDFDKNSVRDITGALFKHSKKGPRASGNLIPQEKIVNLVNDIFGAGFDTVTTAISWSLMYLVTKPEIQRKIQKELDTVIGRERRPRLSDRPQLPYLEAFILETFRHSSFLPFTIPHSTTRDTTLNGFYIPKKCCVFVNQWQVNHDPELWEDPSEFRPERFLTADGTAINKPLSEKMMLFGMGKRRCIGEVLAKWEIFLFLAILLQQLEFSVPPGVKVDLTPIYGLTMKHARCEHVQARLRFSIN
The data set is described as follows: Induction of CYP1A2 activity (unknown origin) relative to control. In kind it is ADME.

The target in another data set is T3, Cytochrome P450 1A1 (Homo sapiens, UniProt P04798).
T3 sequence (P04798 whole entry): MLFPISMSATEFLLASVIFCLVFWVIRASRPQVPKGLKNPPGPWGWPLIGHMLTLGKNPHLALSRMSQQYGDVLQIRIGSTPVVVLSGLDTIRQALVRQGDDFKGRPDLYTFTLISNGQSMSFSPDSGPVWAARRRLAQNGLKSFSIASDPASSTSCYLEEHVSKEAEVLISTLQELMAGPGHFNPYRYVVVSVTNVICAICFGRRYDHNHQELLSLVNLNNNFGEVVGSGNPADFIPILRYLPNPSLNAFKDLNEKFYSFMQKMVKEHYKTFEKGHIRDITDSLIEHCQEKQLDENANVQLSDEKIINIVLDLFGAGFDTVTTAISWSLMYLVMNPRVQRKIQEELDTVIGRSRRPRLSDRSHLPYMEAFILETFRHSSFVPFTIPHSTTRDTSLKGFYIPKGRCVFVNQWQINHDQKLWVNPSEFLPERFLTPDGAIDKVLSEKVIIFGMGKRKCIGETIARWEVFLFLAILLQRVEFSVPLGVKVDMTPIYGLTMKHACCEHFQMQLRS
The data set is described as follows: Induction of CYP1A1 activity (unknown origin) relative to control. In kind it is ADME.

The target of data set [9] is T1, Cytochrome P450 3A4. Put plainly: Inhibition of CYP3A4 (unknown origin) after 10 to 30 mins. The data set is classed as ADME.
A short description of data set [10]: Permeability across human Caco2 cells. The following applies: Caco-2, read-out: permeability. In kind it is ADME, cell-based. In general terms: Caco-2 cells form a polarised layer with tight junctions and transporters.
In data set [11] the test system is Plasma. Put plainly: Metabolic stability in rat plasma at 100 ng/mL measured after 4 hrs. In kind it is ADME, cell-free.
For data set [12], the system named is Plasma. Put plainly: Metabolic stability in mouse plasma at 100 ng/mL measured after 4 hrs. The data set is classed as ADME, cell-free.
A short description of data set [13]: Drug metabolism in Swiss CD-1 mouse liver microsomes at 5 uM after 20 mins. Particulars: read-out: Drug metabolism. In kind it is ADME, Microsome.
The subject of data set [14] is Plasma. Put plainly: Metabolic stability in human plasma at 100 ng/mL measured after 4 hrs. In kind it is ADME, cell-free.
A short description of data set [15]: Drug metabolism in Sprague-Dawley rat liver microsomes at 5 uM after 20 mins. The data set is classed as ADME. The following applies: read-out: Drug metabolism. On the technique in general: Liver microsomes are a subcellular fraction often used to study metabolism.
The nature of data set [16]: Drug metabolism in human liver microsomes at 5 uM after 20 mins. The following applies: read-out: Drug metabolism. In kind it is ADME.
Data set [17] is described as follows: Solubility of the compound at pH 7.4 at 25 degC. The data set is classed as physicochemical. Particulars: buffer.
Data set [18] is described as follows: Lipophilicity, log D of the compound at pH 7.4 at 25 degC. The following applies: buffer. The data set is classed as physicochemical.
For another data set, the target named is Integrin alpha-5/beta-1 (Homo sapiens, UniProt P05556+P08648). The data set is described as follows: Antagonist activity at integrin alpha5beta1 receptor (unknown origin) assessed as inhibition of interaction with biotinylated collagen type-1 after 3 hrs by solid phase ELISA-type assay. In kind it is protein-complex assay. A general note: In an ELISA, binding on a coated surface is turned into a signal by an enzyme label.

For data set [19], the target named is Integrin alpha1/beta1 complex (Homo sapiens, UniProt P05556+P56199). Put plainly: Antagonist activity at integrin alpha1beta1 receptor (unknown origin) assessed as inhibition of interaction with biotinylated collagen type-1 after 3 hrs by solid phase ELISA-type assay. In kind it is protein-complex assay.
Chain of Integrin alpha1/beta1 complex (P05556 whole entry): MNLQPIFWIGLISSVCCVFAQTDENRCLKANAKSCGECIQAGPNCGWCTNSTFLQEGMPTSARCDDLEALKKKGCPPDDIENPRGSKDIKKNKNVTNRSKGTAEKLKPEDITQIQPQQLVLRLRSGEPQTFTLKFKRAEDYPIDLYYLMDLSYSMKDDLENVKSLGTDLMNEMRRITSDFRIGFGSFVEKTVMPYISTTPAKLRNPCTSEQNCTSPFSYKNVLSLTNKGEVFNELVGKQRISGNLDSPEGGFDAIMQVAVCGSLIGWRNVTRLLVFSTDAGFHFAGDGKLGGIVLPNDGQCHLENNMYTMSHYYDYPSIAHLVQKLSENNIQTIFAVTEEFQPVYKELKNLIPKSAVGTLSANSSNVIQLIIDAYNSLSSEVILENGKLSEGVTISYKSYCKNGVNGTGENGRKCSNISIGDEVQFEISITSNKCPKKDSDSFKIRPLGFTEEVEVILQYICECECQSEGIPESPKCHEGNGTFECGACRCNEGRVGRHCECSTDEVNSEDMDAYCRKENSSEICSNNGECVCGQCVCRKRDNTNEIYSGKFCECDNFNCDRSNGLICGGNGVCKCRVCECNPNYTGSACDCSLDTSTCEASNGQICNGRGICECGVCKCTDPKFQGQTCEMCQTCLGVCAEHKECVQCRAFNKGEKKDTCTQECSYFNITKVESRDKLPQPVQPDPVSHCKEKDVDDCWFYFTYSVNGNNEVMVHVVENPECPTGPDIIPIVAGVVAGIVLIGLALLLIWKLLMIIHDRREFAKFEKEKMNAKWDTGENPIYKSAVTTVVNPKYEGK
Chain of Integrin alpha1/beta1 complex (P56199 whole entry): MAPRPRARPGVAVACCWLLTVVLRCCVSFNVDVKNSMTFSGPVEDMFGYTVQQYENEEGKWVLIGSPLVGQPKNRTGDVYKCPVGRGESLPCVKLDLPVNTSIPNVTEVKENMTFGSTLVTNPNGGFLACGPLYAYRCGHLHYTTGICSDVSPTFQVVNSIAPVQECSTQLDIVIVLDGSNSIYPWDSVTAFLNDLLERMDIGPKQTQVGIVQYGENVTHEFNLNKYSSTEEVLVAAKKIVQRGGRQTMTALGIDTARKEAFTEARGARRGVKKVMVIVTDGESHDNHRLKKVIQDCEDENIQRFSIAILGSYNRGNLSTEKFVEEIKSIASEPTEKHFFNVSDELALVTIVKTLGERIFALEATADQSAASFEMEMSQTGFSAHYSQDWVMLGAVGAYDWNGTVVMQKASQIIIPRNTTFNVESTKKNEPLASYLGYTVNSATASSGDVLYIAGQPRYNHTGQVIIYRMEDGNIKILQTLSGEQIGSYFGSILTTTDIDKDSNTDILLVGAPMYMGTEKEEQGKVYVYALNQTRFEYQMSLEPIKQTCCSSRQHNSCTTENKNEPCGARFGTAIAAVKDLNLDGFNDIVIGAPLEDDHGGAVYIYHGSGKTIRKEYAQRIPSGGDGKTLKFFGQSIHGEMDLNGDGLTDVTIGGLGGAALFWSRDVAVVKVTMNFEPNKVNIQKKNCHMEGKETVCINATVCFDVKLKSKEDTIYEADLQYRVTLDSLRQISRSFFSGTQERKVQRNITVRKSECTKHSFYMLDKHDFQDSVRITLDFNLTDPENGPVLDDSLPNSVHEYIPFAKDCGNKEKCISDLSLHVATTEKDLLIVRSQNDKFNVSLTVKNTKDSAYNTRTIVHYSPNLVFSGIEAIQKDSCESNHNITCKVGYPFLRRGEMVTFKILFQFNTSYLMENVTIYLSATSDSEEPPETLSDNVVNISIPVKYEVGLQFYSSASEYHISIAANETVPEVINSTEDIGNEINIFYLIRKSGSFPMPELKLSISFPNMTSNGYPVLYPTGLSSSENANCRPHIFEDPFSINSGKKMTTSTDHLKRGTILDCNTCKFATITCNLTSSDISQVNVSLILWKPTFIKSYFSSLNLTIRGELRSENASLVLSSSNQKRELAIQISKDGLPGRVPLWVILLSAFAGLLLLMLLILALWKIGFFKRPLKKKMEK

Chain of Integrin alpha2/beta1 (P05556 whole entry): as the sequence (P05556 whole entry) above
Chain of Integrin alpha2/beta1 (P17301 whole entry): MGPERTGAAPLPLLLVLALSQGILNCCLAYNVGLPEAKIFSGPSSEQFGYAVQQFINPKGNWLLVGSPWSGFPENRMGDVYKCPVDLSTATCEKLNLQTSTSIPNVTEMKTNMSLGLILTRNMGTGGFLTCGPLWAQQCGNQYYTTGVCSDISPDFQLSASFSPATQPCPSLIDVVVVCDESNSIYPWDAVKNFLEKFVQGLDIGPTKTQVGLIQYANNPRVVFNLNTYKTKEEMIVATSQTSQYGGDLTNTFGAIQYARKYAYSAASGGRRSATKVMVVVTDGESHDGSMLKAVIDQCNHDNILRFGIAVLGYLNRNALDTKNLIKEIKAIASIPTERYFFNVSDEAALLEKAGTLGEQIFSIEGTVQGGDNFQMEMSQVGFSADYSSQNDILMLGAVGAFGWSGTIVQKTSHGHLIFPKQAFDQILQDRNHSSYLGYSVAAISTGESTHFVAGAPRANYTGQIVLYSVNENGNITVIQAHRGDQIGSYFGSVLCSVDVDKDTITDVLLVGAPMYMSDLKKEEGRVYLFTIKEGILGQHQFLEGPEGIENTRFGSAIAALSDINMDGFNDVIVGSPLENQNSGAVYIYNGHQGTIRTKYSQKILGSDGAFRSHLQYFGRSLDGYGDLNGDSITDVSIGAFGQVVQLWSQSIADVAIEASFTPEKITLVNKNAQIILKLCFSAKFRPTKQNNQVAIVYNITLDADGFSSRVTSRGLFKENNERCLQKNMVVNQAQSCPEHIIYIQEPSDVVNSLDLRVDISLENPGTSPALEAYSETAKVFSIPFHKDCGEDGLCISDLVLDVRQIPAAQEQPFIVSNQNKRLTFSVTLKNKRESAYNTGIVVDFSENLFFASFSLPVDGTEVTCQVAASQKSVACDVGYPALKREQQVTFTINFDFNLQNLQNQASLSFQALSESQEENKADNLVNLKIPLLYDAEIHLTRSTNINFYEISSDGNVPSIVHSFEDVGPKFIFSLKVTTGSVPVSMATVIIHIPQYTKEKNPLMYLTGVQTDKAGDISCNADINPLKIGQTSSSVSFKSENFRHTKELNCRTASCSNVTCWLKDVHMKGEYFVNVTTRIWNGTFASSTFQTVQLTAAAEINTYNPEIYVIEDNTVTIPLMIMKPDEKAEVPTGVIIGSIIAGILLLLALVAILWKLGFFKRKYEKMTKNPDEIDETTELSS
T1 sequence (P08684 whole entry): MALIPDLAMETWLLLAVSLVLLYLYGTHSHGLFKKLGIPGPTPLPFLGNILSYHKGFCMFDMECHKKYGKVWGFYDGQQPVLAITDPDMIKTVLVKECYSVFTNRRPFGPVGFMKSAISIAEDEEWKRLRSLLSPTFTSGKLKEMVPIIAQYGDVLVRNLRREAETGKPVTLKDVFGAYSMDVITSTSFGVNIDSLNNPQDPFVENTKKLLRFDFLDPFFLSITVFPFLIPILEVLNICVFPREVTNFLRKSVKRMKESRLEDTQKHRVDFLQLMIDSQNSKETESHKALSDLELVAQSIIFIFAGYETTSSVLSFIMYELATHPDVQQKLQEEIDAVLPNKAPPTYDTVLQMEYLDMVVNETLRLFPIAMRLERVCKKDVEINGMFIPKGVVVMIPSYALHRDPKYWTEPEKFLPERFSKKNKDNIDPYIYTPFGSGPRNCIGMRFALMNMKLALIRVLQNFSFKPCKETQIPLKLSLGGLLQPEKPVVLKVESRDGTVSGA
Chain of Voltage-gated inwardly rectifying potassium channel KCNH2 (Q12809 whole entry): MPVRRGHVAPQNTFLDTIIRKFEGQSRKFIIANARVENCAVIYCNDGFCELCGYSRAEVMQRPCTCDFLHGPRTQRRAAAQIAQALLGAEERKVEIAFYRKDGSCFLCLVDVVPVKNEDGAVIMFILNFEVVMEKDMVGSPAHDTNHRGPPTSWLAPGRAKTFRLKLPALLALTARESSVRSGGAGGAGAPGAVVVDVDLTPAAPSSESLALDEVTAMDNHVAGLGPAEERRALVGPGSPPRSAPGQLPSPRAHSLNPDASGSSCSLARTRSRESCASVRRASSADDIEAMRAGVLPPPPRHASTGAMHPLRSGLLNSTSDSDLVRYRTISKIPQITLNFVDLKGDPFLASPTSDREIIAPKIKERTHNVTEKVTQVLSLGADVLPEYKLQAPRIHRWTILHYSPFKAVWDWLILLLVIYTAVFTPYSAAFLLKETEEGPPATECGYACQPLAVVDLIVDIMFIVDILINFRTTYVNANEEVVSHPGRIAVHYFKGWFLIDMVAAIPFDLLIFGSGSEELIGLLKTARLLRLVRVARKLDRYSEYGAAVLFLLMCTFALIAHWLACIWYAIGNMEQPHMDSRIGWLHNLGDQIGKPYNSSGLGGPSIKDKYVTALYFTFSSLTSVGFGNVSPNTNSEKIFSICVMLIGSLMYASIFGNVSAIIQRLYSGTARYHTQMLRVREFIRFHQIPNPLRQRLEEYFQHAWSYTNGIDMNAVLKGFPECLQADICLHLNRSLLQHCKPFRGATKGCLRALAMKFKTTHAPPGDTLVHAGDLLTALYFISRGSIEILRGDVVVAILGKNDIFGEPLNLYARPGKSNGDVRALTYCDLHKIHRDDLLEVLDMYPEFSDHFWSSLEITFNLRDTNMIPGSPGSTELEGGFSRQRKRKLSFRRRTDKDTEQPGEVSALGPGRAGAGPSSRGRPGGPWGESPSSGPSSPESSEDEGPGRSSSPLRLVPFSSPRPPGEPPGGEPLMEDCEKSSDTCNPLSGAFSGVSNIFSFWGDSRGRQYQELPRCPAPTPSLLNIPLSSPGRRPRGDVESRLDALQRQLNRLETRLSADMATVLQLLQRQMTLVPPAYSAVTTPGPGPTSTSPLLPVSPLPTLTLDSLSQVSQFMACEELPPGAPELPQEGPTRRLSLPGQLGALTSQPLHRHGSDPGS

`O=C1N[C@H](C(=O)O)Cc2cccc(n2)NCCCCOc2ccc(Cl)c1c2`: the pIC50 on Integrin alpha2/beta1 is under 6.00. For the compound `O=C1N[C@H](C(=O)O)Cc2ccc(nc2)OC/C=C/COc2ccc(Cl)c1c2`, the pIC50 on Integrin alpha2/beta1 is 6.87. The same measure, in the same setting: then `O=C1N[C@H](C(=O)O)Cc2ccc(nc2)OCCCCOc2ccc(Cl)c1c2`, with 6.10; and `O=C1N[C@H](C(=O)O)Cc2cn(c3ccccc23)C/C=C/COc2ccc(Cl)c1c2`, with 7.92; and `O=C1N[C@H](C(=O)O)Cn2cc(nn2)CCCCOc2ccc(Cl)c1c2`, with 5.89. `O=C1N[C@H](C(=O)O)Cc2cn(nn2)C/C=C/COc2ccc(Cl)c1c2`: the pIC50 on Integrin alpha2/beta1 is 7.47. For `O=C1N[C@H](C(=O)O)Cc2cn(nn2)CCCCOc2ccc(Cl)c1c2`, the pIC50 at Integrin alpha2/beta1 is 6.30. `Cl.O=C1N[C@H](C(=O)O)Cc2cn(cn2)C/C=C/COc2ccc(Cl)c1c2` yielded a concentration at 1 h in data set [1] of under 10 ng/mL. For the same compound, the dose excreted at 2 h in [2] stood at 50%. In data set [3], the dose excreted at 24 h was determined as 24%. For the same compound, the Vd in data set [4] was found to be 3.6 L/kg. This compound also came in with a C0 in data set [5] of 1700 ng/mL. In [6], this compound had a half-life of 14.4 min. Besides, the pIC50 in [7] was under 5.00; against Cytochrome P450 3A4 [9], under 4.52; at Integrin alpha-5/beta-1 it was 7.13; in data set [19] it was 7.48; on Integrin alpha2/beta1 it was 8.40. Moreover, the Activity on Cytochrome P450 3A4 [8], at Cytochrome P450 1A2 and at Cytochrome P450 1A1 was under 10% in each case. For the same compound, in data set [10], the Papp is 0.1 ×10⁻⁶ cm/s. In addition, the Stability entry in the data set with Plasma [11], in the data set with Plasma [12] and with Plasma [14] was “Stable” in each case. For the same compound, the metabolised at 20 min, 5 µM in data set [13] worked out at 0%; in [15], 0%; in [16] it was 3%. The compound also registered a solubility in data set [17] of 1540 µg/mL. In data set [18], this compound returned a log distribution coefficient (logD) of 0.05. As to `O=C1N[C@H](C(=O)O)Cc2cn(cn2)CCCCOc2ccc(Cl)c1c2`, at Integrin alpha2/beta1, the pIC50 was 6.44. For the compound `O=C1N[C@@H](C(=O)O)Cc2cn(cn2)C/C=C/COc2ccc(Cl)c1c2`, on Integrin alpha2/beta1, the pIC50 is 6.04.

For `O=C1N[C@@H](C(=O)O)Cc2cn(cn2)CCCCOc2ccc(Cl)c1c2`, the negative logarithm of the IC50 (pIC50) on Integrin alpha2/beta1 was under 5.40. For the compound `O=C1N[C@H](C(=O)O)Cc2cn(cn2)C/C=C/COc2ccc(Cl)c1c2Cl`, on Integrin alpha2/beta1, the pIC50 was 6.06. On the same count and under the same terms, with `O=C1N[C@H](C(=O)O)Cc2cn(cn2)C/C=C/COc2ccc(Cl)c1n2` the figure was 7.44. Regarding `O=C1N[C@H](C(=O)O)Cc2ncn(c2Cl)C/C=C/COc2ccc(Cl)c1c2`, the pIC50 at Integrin alpha2/beta1 was under 5.40. On the same count and under the same terms, with `O=C1N[C@H](C(=O)O)Cc2cn(cn2)CCCCCOc2ccc(Cl)c1c2` the figure was 6.14. Turning to `O=C1N[C@H](C(=O)O)Cc2cn(cn2)C/C=C/Cc2ccc(Cl)c1c2`, the pIC50 on Integrin alpha2/beta1 is 6.75. For the compound `Cc1cccc(Cl)c1C(=O)N[C@@H](Cc1ccc(NC(=O)c2c(Cl)cccc2Cl)cc1)C(=O)O`, on Integrin alpha2/beta1, the negative-log IC50 (pIC50) was 6.67. Regarding `O=C1N[C@H](C(=O)O)Cn2cc(nn2)C/C=C/COc2ccc(Cl)c1c2` (mixture of isomers), the negative logarithm of the IC50 (pIC50) on Integrin alpha2/beta1 was 7.42.

As to `O=C1N[C@H](C(=O)O)Cc2cn(cn2)C/C=C/COc2ccc1c(Cl)c2` (mixture of isomers), the negative logarithm of the IC50 (pIC50) at Integrin alpha2/beta1 is 6.33.

Consider `O=C1N[C@H](C(=O)O)Cc2cn(cn2)CC/C=C/COc2ccc(Cl)c1c2` (mixture of isomers), for which the negative logarithm of the IC50 (pIC50) on Integrin alpha2/beta1 was 6.57. As to `O=C1NC(C(=O)O)Cc2ccccc2OCCCCOc2ccc(Cl)c1c2` (racemic), on Integrin alpha2/beta1, the pIC50 was under 5.40.

On to `O=C1NC(C(=O)O)CCc2cn(cn2)C/C=C/COc2ccc(Cl)c1c2` (racemic), for which the pIC50 at Integrin alpha2/beta1 was under 5.30. For `O=C1NC(C(=O)O)CCc2cn(cn2)CCCCOc2ccc(Cl)c1c2` (racemic), the pIC50 on Integrin alpha2/beta1 is under 5.30.

Broadly, the pIC50 is −log10 of the IC50, conventionally taken in molar units. By half-life is commonly meant how long it takes for the measured level to halve. For orientation: solubility means the concentration that dissolves in the medium under given conditions. Low readings indicate little dissolved substance, high ones much dissolved substance. As a reminder, the logD is the decadic logarithm of the distribution of all forms, ionised or not, between an organic phase and buffer at a given pH. High values mean a more lipophilic compound, low ones a more hydrophilic compound.

The values are drawn from ChEMBL document CHEMBL3112421, “Small Macrocycles As Highly Active Integrin α2β1 Antagonists” (ACS Med Chem Lett, 2014).
